Source: patent publication US9408856B2, “Topical steroidal formulations” (Temple University—Of The Commonwealth System of Higher …, priority 2008, dated 2016)
Where “and” joins values, the source holds several entries; their conditions need not be identical. Equal entries are not always repeated.

Test system: TPA-stimulated epidermal DNA synthesis in mouse epidermis
Experiment: TPA-induced epidermal DNA synthesis in mouse epidermis, transdermal fluasterone
Type: in vivo, CD-1 mice
Conditions: 20 h
[1] = Tween 80:ethanol (50:50 v/v) solution, 1.9 mg/kg transdermal (abdomen) 1 h before 2 μg TPA (back), single mice, 1.9 mg/kg
[2] = carbitol solution, 1.25 mg/kg transdermal (abdomen) 1 h before 2 μg TPA (back), single mice, 1.25 mg/kg
[3] = carbitol solution, 2.5 mg/kg transdermal (abdomen) 1 h before 2 μg TPA (back), single mice, 2.5 mg/kg
[4] = carbitol solution, 5 mg/kg transdermal (abdomen) 1 h before 2 μg TPA (back), single mice, 5 mg/kg
[5] = ethanol:limonene:isopropyl myristate (81:15:4) solution, 1.5 mg/kg transdermal (abdomen) 1 h before 2 μg TPA (back), single mice, 1.5 mg/kg
[6] = ethanol:limonene:isopropyl myristate (81:15:4) solution, 5 mg/kg transdermal (abdomen) 1 h before 2 μg TPA (back), single mice, 5 mg/kg
[7] = micronized suspension in ethanol:water:Tween 80 (76:19:5), 1.5 mg/kg transdermal (abdomen) 1 h before 2 μg TPA (back), single mice and group mean, 1.5 mg/kg
[8] = micronized suspension in ethanol:water:Tween 80 (76:19:5), 1.5 mg/kg transdermal (abdomen) 1 h before 2 μg TPA (back), single mice, 1.5 mg/kg
[9] = micronized suspension in ethanol:water:Tween 80 (76:19:5), 2.5 mg/kg transdermal (abdomen) 1 h before 2 μg TPA (back), single mice, 2.5 mg/kg

C[C@]12CCCCC1=CC[C@@H]1[C@@H]2CC[C@]2(C)C(=O)[C@H](F)C[C@@H]12 [Fluasterone, 16α-fluoro-5-androsten-17-one]
cpm [1]: 3,139 cpm and 3,175 cpm
μg DNA/0.2 [1]: 14.4 μg DNA/0.2 and 16.6 μg DNA/0.2
cpm/μg DNA (carbitol solution, 1.25 mg/kg transdermal (abdomen) 1 h before 2 μg TPA (back), single mice and group mean, 1.25 mg/kg): 270.1 cpm/μg DNA and 341.3 cpm/μg DNA and 287.9 ± 25.2 cpm/μg DNA
corrected cpm [2]: 6,051 cpm and 10,170 cpm
cpm [2]: 6,086 cpm and 10,205 cpm
μg DNA/0.2 mL [2]: 22.4 μg DNA/0.2 mL and 29.8 μg DNA/0.2 mL
μg DNA/0.2 mL (carbitol solution, 1.9 mg/kg transdermal (abdomen) 1 h before 2 μg TPA (back), single mice, 1.9 mg/kg): 18.4 μg DNA/0.2 mL and 11.8 μg DNA/0.2 mL
cpm/μg DNA (carbitol solution, 2.5 mg/kg transdermal (abdomen) 1 h before 2 μg TPA (back), single mice and group mean, 2.5 mg/kg): 64.8 cpm/μg DNA and 73.8 cpm/μg DNA and 69.3 ± 6.3 cpm/μg DNA
corrected cpm [3]: 616 cpm and 649 cpm
cpm [3]: 651 cpm and 684 cpm
μg DNA/0.2 mL [3]: 9.5 μg DNA/0.2 mL and 8.8 μg DNA/0.2 mL
corrected cpm [4]: 5,338 cpm and 5,045 cpm
cpm [4]: 5,373 cpm and 5,080 cpm
μg DNA/0.2 mL [4]: 10.0 μg DNA/0.2 mL and 10.8 μg DNA/0.2 mL
μg DNA/0.2 mL (ethanol:limonene:isopropyl myristate (81:15:4) solution, 1.5 mg/kg transdermal (abdomen) 1 h before 2 μg TPA (back), single mice and group mean, 1.5 mg/kg): 25.8 μg DNA/0.2 mL and 25.1 μg DNA/0.2 mL
corrected cpm [5]: 5,854 cpm and 3,703 cpm
cpm [5]: 5,883 cpm and 3,732 cpm
μg DNA/0.2 mL (ethanol:limonene:isopropyl myristate (81:15:4) solution, 2.5 mg/kg transdermal (abdomen) 1 h before 2 μg TPA (back), single mice and group mean (p < 0.05 vs TPA), 2.5 mg/kg): 18.1 μg DNA/0.2 mL and 15.3 μg DNA/0.2 mL
μg DNA/0.2 mL (ethanol:limonene:isopropyl myristate (81:15:4) solution, 5 mg/kg transdermal (abdomen) 1 h before 2 μg TPA (back), single mice and group mean (p < 0.05 vs TPA), 5 mg/kg): 15.9 μg DNA/0.2 mL and 17.3 μg DNA/0.2 mL
cpm/μg DNA (ethanol:limonene:isopropyl myristate (81:15:4) solution, 5 mg/kg transdermal (abdomen) 1 h before 2 μg TPA (back), single mice and group mean, 5 mg/kg): 532.5 cpm/μg DNA and 603.2 cpm/μg DNA
corrected cpm [6]: 8,467 cpm and 10,436 cpm
cpm [6]: 8,496 cpm and 10,465 cpm
cpm/μg DNA [7]: 135.7 cpm/μg DNA and 98.9 cpm/μg DNA
μg DNA/0.2 mL [7]: 34.3 μg DNA/0.2 mL and 35.2 μg DNA/0.2 mL
corrected cpm [8]: 4,655 cpm and 3,481 cpm
cpm [8]: 4,684 cpm and 3,510 cpm
μg DNA/0.2 mL (micronized suspension in ethanol:water:Tween 80 (76:19:5), 2.5 mg/kg transdermal (abdomen) 1 h before 2 μg TPA (back), single mice and group mean (p < 0.02 vs TPA), 2.5 mg/kg): 19.6 μg DNA/0.2 mL and 16.6 μg DNA/0.2 mL
cpm/μg DNA (micronized suspension in ethanol:water:Tween 80 (76:19:5), 2.5 mg/kg transdermal (abdomen) 1 h before 2 μg TPA (back), single mice and group mean, 2.5 mg/kg): 109.5 cpm/μg DNA and 139.0 cpm/μg DNA
corrected cpm [9]: 2,147 cpm and 2,308 cpm
cpm [9]: 2,176 cpm and 2,337 cpm
μg DNA/0.2 mL (micronized suspension in ethanol:water:Tween 80 (76:19:5), 5 mg/kg transdermal (abdomen) 1 h before 2 μg TPA (back), single mice and group mean (p < 0.01 vs TPA), 5 mg/kg): 16.5 μg DNA/0.2 mL and 18.9 μg DNA/0.2 mL
